Source: patent US20100081719A1 (priority 2006, published 2010)
Where “and” joins values, the source holds several entries; their conditions need not be identical. Equal entries are not always repeated. Entries after “also recorded” stand apart in the source; their conditions may differ. Structures can show the parent of a compound that is named as a salt.

Assays:
[1] = tested on: patients who met the 1990 ACR criteria for fibromyalgia syndrome; assay: Multi-center double-blind, randomized, placebo-controlled study of milnacipran for the treatment of fibromyalgia (Example 1); format: in vivo, human; conditions: for Responders for the treatment of the pain of fibromyalgia (% = m/n): observed cases (OC), intent-to-treat
Protocol: The primary outcome was a composite responder analysis assessing response rate at weeks 14 and 15, and the secondary analysis assessed response rate at weeks 26 and 27.
This was a multi-center, randomized, double-blinded, placebo-controlled three-arm study, which enrolled 888 patients who met the 1990 ACR criteria for fibromyalgia syndrome as well as the more detailed admission criteria outlined in the protocol.
Patients recorded baseline symptoms for the first two weeks after washing off anti-depressants, benzodiazepines, and certain other drugs that could potentially interfere with efficacy measurements.
All randomized medications (placebo and milnacipran) were administered in a split-dose (BID) fashion. The doses were administered in a dose escalation regimen as outlined below:
d. FMS Status Assessments: Patient pain 24 hour and 7 day recall VAS, the SF-36, Multiple Ability Self-report Questionnaire (MASQ, cognitive function), the Multidimensional Health Assessment Questionnaire (MDHAQ) and the Multidimensional Fatigue Inventory (MFI). Diary assessments include current pain (morning, random daily, and evening reports); daily recall pain (morning report); medications taken (evening report); overall pain past week (weekly report), overall fatigue in the last week (weekly report), and the extent that pain kept the patient from caring for themselves (weekly report).
The SF-36 is a multi-purpose, short-form health survey. It yields an 8-scale profile of functional health and well-being scores, psychometrically-based physical and mental health summary measures, and a preference-based health utility index (Ware J E, Snow K K, Kosinski M, Gandek B. SF-36® Health Survey Manual and Interpretation Guide. Boston, Mass.: New England Medical Center, The Health Institute, 1993). […] The SF-36 has proven useful in surveys of general and specific populations, comparing the relative burden of diseases, and in differentiating the health benefits produced by a wide range of different treatments.
The primary endpoint of this study was a composite responder analysis implementing analysis of three domains of interest, evaluated at […]. The domains measured were:
For the primary analysis, the pain domain score was determined by a calculation that compared the average of treatment weeks 14 and 15 to the two baseline weeks, and treatment weeks 26 and 27 vs. baseline for the secondary analysis. The last observation was carried forward if neither the week 14 nor week 15 (or week 26/27) patient self-reported pain score is available to compare to the baseline value.
A responder was defined as a subject who experienced a greater than 30% reduction in pain from baseline and improvement on the PGIC.
See Table 1 for a summary of the results in the Intent-to-Treat Population and Table 2 for a summary of the Last Observation Carried Forward (LOCF), Baseline Observation Carried Forward (BOCF) and study completer (OC) populations. LOCF is an analysis in which observations are carried forward to the last time point for patients who dropped out. The LOCF analysis treats the carried-forward data as observed data at the last time point. BOCF is an analysis that requires the patient remain active in the trial to be evaluated for response. If a patient withdraws from the trial for any reason they are classed as a non-responder irregardless of their pain and global scores at the time of withdrawal.

fibromyalgia patients = conditions: cited from earlier work
[2] = both milnacipran treatment groups (BID and QD), up to 200 mg/day

CCN(CC)C(=O)C1(c2ccccc2)CC1CN (racemic) [milnacipran, Z-2-aminomethyl-1-phenyl-N, N-diethylcyclopropanecarboxamide hydrochloride]
Treatment of fatigue associated with FMS (MFI total score / MFI physical fatigue), comparison with placebo ([1]; 100 mg/day vs placebo): superior to placebo
SF-36 Physical Function ([1]; 100 mg/day, treatment week 3): 6.31
SF-36 Physical Function ([1]; 100 mg/day, treatment week 7): 6.62
SF-36 Physical Function ([1]; 100 mg/day, treatment week 11): 7.70
SF-36 Physical Function ([1]; 100 mg/day, treatment week 15): 7.70
SF-36 Physical Function ([1]; 100 mg/day, treatment week 19): 7.71
SF-36 Physical Function ([1]; 100 mg/day, treatment week 23): 7.07
SF-36 Physical Function ([1]; 100 mg/day, treatment week 27): 7.11
Responders for the treatment of the pain of fibromyalgia (% = m/n) ([1]; 100 mg/day, treatment weeks 14-15 (3 month), hydrochloride): 53.33% and 53.3%
Responders for the treatment of the pain of fibromyalgia (% = m/n) ([1]; 100 mg/day, treatment weeks 14-15 (3 month), listed as Milnacipran, hydrochloride): 72 (53.33) %
Responders for the treatment of the pain of fibromyalgia (% = m/n) ([1]; 100 mg/day, treatment weeks 26-27 (6 month), hydrochloride): 49.59% and 49.6%
Responders for the treatment of the pain of fibromyalgia (% = m/n) ([1]; 100 mg/day, treatment weeks 26-27 (6 month), listed as Milnacipran, hydrochloride): 60 (49.59) %
Individual component responder rate, PGIC (LOCF) ([1]; 100 mg, 3 month): 54.0%
Individual component responder rate, Pain (LOCF) ([1]; 100 mg, 3 month): 35.7%
Pain composite responder rate, Primary Analysis (LOCF) ([1]; 100 mg, 3 month): 33.5%
Pain composite responder rate, Sensitivity Analysis I (BOCF) ([1]; 100 mg, 3 month): 32.1%
Pain composite responder rate, Sensitivity Analysis II ([1]; 100 mg, 3 month): 32.%
Pain composite responder rate, Sensitivity Analysis III ([1]; 100 mg, 3 month): 32.1%
Individual component responder rate, PGIC (LOCF) ([1]; 100 mg, 6 month): 49.6%
Individual component responder rate, Pain (LOCF) ([1]; 100 mg, 6 month): 35.7%
Pain composite responder rate, Primary Analysis (LOCF) ([1]; 100 mg, 6 month): 30.8%
Pain composite responder rate, Sensitivity Analysis I (BOCF) ([1]; 100 mg, 6 month): 26.8%
Pain composite responder rate, Sensitivity Analysis II ([1]; 100 mg, 6 month): 27.2%
Pain composite responder rate, Sensitivity Analysis III ([1]; 100 mg, 6 month): 29.5%
MFI (change from baseline) Physical fatigue (range 4 to 20) ([1]; 100 mg, treatment week 3): −0.99
MFI (change from baseline) Total score (range 20 to 100) ([1]; 100 mg, treatment week 3): −3.68
MFI (change from baseline) Physical fatigue (range 4 to 20) ([1]; 100 mg, treatment week 7): −1.23
MFI (change from baseline) Total score (range 20 to 100) ([1]; 100 mg, treatment week 7): −4.32
MFI (change from baseline) Physical fatigue (range 4 to 20) ([1]; 100 mg, treatment week 11): −1.46
MFI (change from baseline) Total score (range 20 to 100) ([1]; 100 mg, treatment week 11): −5.16
MFI (change from baseline) Physical fatigue (range 4 to 20) ([1]; 100 mg, treatment week 15): −1.29
MFI (change from baseline) Total score (range 20 to 100) ([1]; 100 mg, treatment week 15): −5.15
MFI (change from baseline) Physical fatigue (range 4 to 20) ([1]; 100 mg, treatment week 19): −1.34
MFI (change from baseline) Total score (range 20 to 100) ([1]; 100 mg, treatment week 19): −4.97
MFI (change from baseline) Physical fatigue (range 4 to 20) ([1]; 100 mg, treatment week 23): −1.23
MFI (change from baseline) Total score (range 20 to 100) ([1]; 100 mg, treatment week 23): −4.44
MFI (change from baseline) Physical fatigue (range 4 to 20) ([1]; 100 mg, treatment week 27): −1.37
MFI (change from baseline) Total score (range 20 to 100) ([1]; 100 mg, treatment week 27): −5.00
Treatment of fatigue associated with FMS (MFI), comparison of doses ([1]; 200 mg/day (high dose) vs 100 mg/day, hydrochloride): superior to milnacipran 100 mg/day; also recorded: significantly more effective treatment
Treatment of fatigue associated with FMS (MFI total score / MFI physical fatigue), comparison with placebo ([1]; 200 mg/day vs placebo): superior to placebo
SF-36 Physical Function ([1]; 200 mg/day, treatment week 3): 7.44
SF-36 Physical Function ([1]; 200 mg/day, treatment week 7): 8.80
SF-36 Physical Function ([1]; 200 mg/day, treatment week 11): 8.46
SF-36 Physical Function ([1]; 200 mg/day, treatment week 15): 8.44
SF-36 Physical Function ([1]; 200 mg/day, treatment week 19): 8.37
SF-36 Physical Function ([1]; 200 mg/day, treatment week 23): 7.85
SF-36 Physical Function ([1]; 200 mg/day, treatment week 27): 7.95
Responders for the treatment of the pain of fibromyalgia (% = m/n) ([1]; 200 mg/day, treatment weeks 14-15 (3 month), hydrochloride): 55.0%
Responders for the treatment of the pain of fibromyalgia (% = m/n) ([1]; 200 mg/day, treatment weeks 14-15 (3 month), listed as Milnacipran, hydrochloride): 143 (55.00) %
Responders for the treatment of the pain of fibromyalgia (% = m/n) ([1]; 200 mg/day, treatment weeks 26-27 (6 month), hydrochloride): 51.74% and 51.7%
Responders for the treatment of the pain of fibromyalgia (% = m/n) ([1]; 200 mg/day, treatment weeks 26-27 (6 month), listed as Milnacipran, hydrochloride): 119 (51.74) %
Individual component responder rate, PGIC (LOCF) ([1]; 200 mg, 3 month): 50.6%
Individual component responder rate, Pain (LOCF) ([1]; 200 mg, 3 month): 38.3%
Pain composite responder rate, Primary Analysis (LOCF) ([1]; 200 mg, 3 month): 34.9%
Pain composite responder rate, Sensitivity Analysis I (BOCF) ([1]; 200 mg, 3 month): 32.4%
Pain composite responder rate, Sensitivity Analysis II ([1]; 200 mg, 3 month): 32.7%
Pain composite responder rate, Sensitivity Analysis III ([1]; 200 mg, 3 month): 32.4%
Individual component responder rate, PGIC (LOCF) ([1]; 200 mg, 6 month): 49.9%
Individual component responder rate, Pain (LOCF) ([1]; 200 mg, 6 month): 35.4%
Pain composite responder rate, Primary Analysis (LOCF) ([1]; 200 mg, 6 month): 32.2%
Pain composite responder rate, Sensitivity Analysis I (BOCF) ([1]; 200 mg, 6 month): 27.0%
Pain composite responder rate, Sensitivity Analysis II ([1]; 200 mg, 6 month): 28.6%
Pain composite responder rate, Sensitivity Analysis III ([1]; 200 mg, 6 month): 29.9%
MFI (change from baseline) Physical fatigue (range 4 to 20) ([1]; 200 mg, treatment week 3): −1.20
MFI (change from baseline) Total score (range 20 to 100) ([1]; 200 mg, treatment week 3): −4.58
MFI (change from baseline) Physical fatigue (range 4 to 20) ([1]; 200 mg, treatment week 7): −1.56
MFI (change from baseline) Total score (range 20 to 100) ([1]; 200 mg, treatment week 7): −5.92
MFI (change from baseline) Physical fatigue (range 4 to 20) ([1]; 200 mg, treatment week 11): −1.54
MFI (change from baseline) Total score (range 20 to 100) ([1]; 200 mg, treatment week 11): −5.67
MFI (change from baseline) Physical fatigue (range 4 to 20) ([1]; 200 mg, treatment week 15): −1.50
MFI (change from baseline) Total score (range 20 to 100) ([1]; 200 mg, treatment week 15): −5.62
MFI (change from baseline) Physical fatigue (range 4 to 20) ([1]; 200 mg, treatment week 19): −1.54
MFI (change from baseline) Total score (range 20 to 100) ([1]; 200 mg, treatment week 19): −5.67
MFI (change from baseline) Physical fatigue (range 4 to 20) ([1]; 200 mg, treatment week 23): −1.44
MFI (change from baseline) Total score (range 20 to 100) ([1]; 200 mg, treatment week 23): −4.94
MFI (change from baseline) Physical fatigue (range 4 to 20) ([1]; 200 mg, treatment week 27): −1.49
MFI (change from baseline) Total score (range 20 to 100) ([1]; 200 mg, treatment week 27): −5.80
Relief from fibromyalgia and its symptoms ([1]; continued administration (daily for at least three months)): long-term (at least three months) relief
Long-term treatment of fibromyalgia and some of its symptoms, comparison of doses ([1]; low dose (100 mg/day) vs high dose (200 mg/day), continued administration): almost as effective as
Therapy for the symptom of pain in FMS (fibromyalgia patients; 100 mg BID): effective acute (short-term) therapy
PGIC: completers who reported an improvement in their overall status (fibromyalgia patients; [2]): over 70%
PGIC: completers who reported worsening (fibromyalgia patients; [2]): 10%
Deaths or serious adverse events associated with treatment (fibromyalgia patients; milnacipran-treated patients): no deaths or serious adverse events
Patients in whom elevation in hepatic enzymes resulted in adverse events (fibromyalgia patients; milnacipran-treated patients): 2%
Effect on fatigue, mood, global wellness, and function, BID vs QD dosing (fibromyalgia patients; twice-daily (BID) vs once-daily (QD) dosing): approximately equally effective
Treating pain, BID vs QD dosing (fibromyalgia patients; twice-daily vs QD dosing): more effective in treating pain than QD dosing
